# Measurements: paper PMC7417813, “Synthesis and Biological Evaluation of Thio-Derivatives of 2-Hydroxy-1,4-Naphthoquinone (Lawsone) as Novel Antiplatelet Agents” (Frontiers in Chemistry, 2020)
# Entries after “also recorded” stand apart in the source; their conditions may differ. Read-outs that look alike come from different tables or passages of the source.
# Experiments:
# washed platelets = test: Lactate dehydrogenase (LDH)-based cytotoxicity assay on washed platelets; conditions: for cytotoxicity on platelets by LDH leakage (in words): 100 μM, 10 min at 37°C; for Cytotoxic activity Mean (%) ± SD: LDH release as percentage of total enzyme activity (0.3% Triton X-100 lysis), 100 μM compound, 10 min, 37°C, washed platelets
# Experimental: Platelets were obtained from citrated whole blood of healthy volunteers (two weeks drugs-free) with written informed consent, as previously described (Fuentes et al., [2014a]).
# Washed platelets (200 × 10^9 platelets/L) were incubated for 10 min at 37°C with DMSO (vehicle) 0.2% or 100 μM of compounds. Then, platelets are centrifuged (800 × g for 8 min), and 50 μL aliquots of the resulting supernatant analyzed by the LDH assay (Cayman Chemical, USA).
# [1] = tested on: TRAP-6-stimulated platelets; test: Platelet aggregation induced by TRAP-6 (light transmission, lumi-aggregometer); format: cell-based, human; conditions: platelet aggregation induced by TRAP-6 (5 μM), washed platelets pre-incubated 5 min at 37°C, read-out: IC50 (μM) ± SD TRAP-6 (5 μM)
# Experimental: (§1) Platelet aggregation was evaluated using a lumi-aggregometer (Chrono-Log, Haverton, PA, USA) and monitored by light transmission according to Fuentes et al. (Fuentes et al., [2014a]; Mendez et al., [2020]). Briefly, washed platelets (200 × 10^9 platelets/L) were pre-incubated for 5 min at 37°C and pH 7.4 with vehicle or different doses of compounds; then platelet aggregation was induced by TRAP-6 (5 μM) or collagen (1 μg/mL) and measured for 5 min at 37°C while stirring.
# (§2) The data obtained were presented as a mean ± standard deviation (SD) of three independent experiments and analyzed using Prism 8.3 software (GraphPad Inc., San Diego CA, USA). The half-maximal inhibitory concentration (IC50) was calculated from dose-response curves. Differences between samples were analyzed using Tukey or paired t-test (Vaiyapuri et al., [2013]). P-values < 0.05 were considered as significant (Fuentes et al., [2014b]; Munoz-Gutierrez et al., [2017]).
# [2] = tested on: collagen-stimulated platelets; test: Platelet aggregation induced by collagen (light transmission, lumi-aggregometer); format: cell-based, human; conditions: platelet aggregation induced by collagen (1 μg/mL), washed platelets pre-incubated 5 min at 37°C, read-out: IC50 (μM) ± SD Collagen (1 μg/mL)
# Experimental: as §1, §2
# CD63 = CD63 levels on the surface of platelets (flow cytometry); format: cell-based, human; conditions: Figure 3B
# Experimental: (§3) Externalization of phosphatidylserine, glycoprotein (GP) IIb/IIIa activation, P-selectin expression, CD63 release, and ROS levels on platelets were determined by flow cytometry (Ritchie et al., [2000]; Fuentes et al., [2014b]; Walsh et al., [2014]). All results were analyzed in the Accuri C6 flow cytometer (BD, Biosciences, USA).
# (§4) Figure 3 Antiplatelet activity of compound 4. (A) Externalization of phosphatidylserine was evaluated by annexin-V binding. (B) Levels of CD63 on the surface of platelets after activation by TRAP-6 (5 μM) or collagen (1 μg/mL). (C) P-selectin expression was measured by flow cytometry in platelets stimulated with TRAP-6 (5 μM) or collagen (1 μg/mL). (D) GPIIb/IIIa activation stimulated by TRAP-6 (5 μM) or collagen (1 μg/mL) was determined by flow cytometry using the PAC-1 antibody. The graph depicts the mean ± SD of n = 3 experiments. The black graph is the control of resting platelets. ^*p < 0.05, ^**p < 0.01, and ^***p < 0.001 vs. 0 (vehicle DMSO 0.2%).
# GPIIb/IIIa = GPIIb/IIIa activation by PAC-1 antibody binding (flow cytometry); format: cell-based, human; conditions: Figure 3D
# Experimental: as §3, §4
# Small structural changes led to the synthesis of non-toxic lawsone thio-derivatives with potent antiplatelet activity (Tables 1, 3). […] Thus, we decided to deeply analyze the effects of compound 4 in platelets. […] We analyzed the activated form of GPIIb/IIIa by studying the binding of FITC-labeled PAC-1 antibody by flow cytometry (Fuentes et al., [2014a]).
# platelets = test: Externalization of phosphatidylserine by annexin-V binding (flow cytometry); format: cell-based, human; conditions: Figure 3A
# Experimental: as §3, §4
# P-selectin = P-selectin expression on platelets (flow cytometry); format: cell-based, human; conditions: compound at 10 and 40 μM, Figure 3C
# Experimental: as §3, §4
IC50 ([1]; Homo sapiens) [µM],IC50 ([2]; Homo sapiens) [µM],melting point,Molecule,cytotoxicity on platelets by LDH leakage (in words) (washed platelets),Cytotoxic activity Mean (%) ± SD (washed platelets) [%],also measured
–,–,–,"2-((2-bromophenyl)thio)-3-hydroxynaphthalene-1,4-dione [Compound 2]",did not exert cytotoxicity,14.72 ± 10.92,IC50 [1]: 112 ± 17.5 µM; IC50 [2]: 11.2 ± 3.9 µM
> 500,10.6 ± 2.25,–,"O=C1C(O)=C(Sc2ccccc2F)C(=O)c2ccccc21 [Compound 6, 2-((2-Fluorophenyl)thio)-3-hydroxynaphthalene-1,4-dione]",did not exert cytotoxicity,21.77 ± 2.37,–
–,–,–,"O=C1C=C(O)C(=O)c2ccccc21 [Lawsone, 2-hydroxy-1,4-naphthoquinone]",had a cytotoxic activity,32.80 ± 3.13,–
134 ± 17.3,11.1 ± 1.69,268.7 °C (dec.),"O=C1C(O)=C(Sc2cccc(F)c2)C(=O)c2ccccc21 [Compound 7, 2-((3-Fluorophenyl)thio)-3-hydroxynaphthalene-1,4-dione]",did not exert cytotoxicity,21.50 ± 2.37,–
–,–,–,"2-((4-Bromophenyl)thio)-3-hydroxynaphthalene-1,4-dione [Compound 4]",no cytotoxicity was observed; also recorded: did not exert cytotoxicity; also recorded: non-toxic,22.38 ± 5.78,expression of CD63 on platelets' membrane (CD63; after activation with TRAP-6 (5 μM)): decreased; expression of CD63 on platelets' membrane (CD63; after activation with collagen (1 μg/mL)): decreased; PAC-1 binding to platelets (GPIIb/IIIa activation) (GPIIb/IIIa; TRAP-6-induced): inhibited; PAC-1 binding to platelets (GPIIb/IIIa activation) (GPIIb/IIIa; collagen-induced): inhibited; phosphatidylserine exposure (platelets): unable to affect; P-selectin expression on activated platelets (P-selectin; TRAP-6 (5 μM)): inhibited; P-selectin expression on activated platelets (P-selectin; collagen (1 μg/mL)): inhibited; IC50 [1]: 15 ± 1.52 µM; IC50 [2]: 5.58 ± 1.01 µM
–,–,235 °C (dec.),"COC(=O)c1ccccc1SC1=C(O)C(=O)c2ccccc2C1=O [Compound 5, Methyl 2-((3-hydroxy-1,4-dioxo-1,4-dihydronaphthalen-2-yl)thio)benzoate]",had a cytotoxic activity,31.12 ± 3.06,–
155 ± 55.2,14.6 ± 5.43,–,"O=C1C(O)=C(Sc2ccccc2)C(=O)c2ccccc21 [Compound 1, 2-Hydroxy-3-(phenylthio)naphthalene-1,4-dione]",did not exert cytotoxicity,22.35 ± 2.94,–
108 ± 53,12.1 ± 1.21,268 °C (dec.),"O=C1C(O)=C(Sc2ccc(F)cc2)C(=O)c2ccccc21 [Compound 8, 2-((4-Fluorophenyl)thio)-3-hydroxynaphthalene-1,4-dione]",did not exert cytotoxicity,21.62 ± 4.17,–
